# Test results from patent EP1028734B1, “USE OF SPECIFIC STEADY-STATE R-TYPE CALCIUM CHANNEL BLOCKERS” (priority 1997, dated 1999).
# How the values were obtained:
# rat paw oedema = type: in vivo, rats
# Protocol: In this experiment (N =5 to 6 animals per group), the anti-oedemagenic action of compounds MV 8608 and MV 8612 against bradykinin and several mediators which are reported to be involved in the inflammatory processes, was evaluated. The procedures used to perform these experiments have been reported elsewhere (Neves et al., 1993, Eur. J. Pharmacol. 243:213-219; Campos et al., 1995, Br. J. Pharmacol. 114:1005-1013; Campos et al., 1996, Br. J. Pharmacol. 117:793-798; Eur. J. Pharmacol. 316:227-286). […] As reported previously, in rats treated […] prior to a systemic injection of LPS, both B1 and B2 kinin selective agonists caused marked oedema formation (Figures 37C and D (Campos et al., 1996, supra)).
# R-type Ca^2+ channel [1] = test: Fura-2 total [Ca]i measurement, sustained increase of [Ca]i via stimulation of R-type Ca2+ channels; type: cell-based, chick, human, rabbit
# Description: This sustained increase of Ca^2+ induced by depolarization of the cell membrane or hormones such as PAF, ET-1 and bradykinin is due to the increase of Ca^2+ influx through the R-type Ca^2+ channels at the sarcolemmal membrane and/or the nuclear membrane (Bkaily G., 1994, supra; 1996, supra; 1997a-d, supra). Using Ca^2+ fluorescence probes Fura-2 or Fluo-3 and 2 and three-dimension Ca^2+ imaging techniques (Bkaily G., 1994, supra; 1996, supra; 1997a-d, supra), the effect of hormones and drugs could be easily tested. These two methods are used with single cells of different types as described above. […]
# Using Fura-2 [Ca]i measurement technique, in one series of experiments we tested the effect of MV8612 (10^-9M) on the stimulation of R-type Ca^2+-induced sustained increase of [Ca]i by sustained depolarization (Figures 26 and 27), PAF (10^-9M, Figure 34) and ET-1 (Figures 33 and 34).
# [2] = writhe responses in mice (acetic acid, acetylcholine, kaolin); type: in vivo; conditions: 2.7 to 27 mol/kg, i.p.
# Description: The antinociceptive actions of compound MV 8612 and MV 8608 were investigated in different models of nociception in mice as reported previously (Vaz et al., 1996, J. Pharmacol. Exp. Ther. 278:304-312).
# R-type Ca^2+ channel [3] = test: cell attached single channel patch clamp, R-type Ca2+ channel in human aortic vascular smooth muscle cell line; type: cell-based
# Protocol: Also, for the R-type Ca^2+ channel current, the effect of the compounds are tested on the R-type Ca^2+ channel amplitude, voltage dependency and probability of opening, by using the cell-attached patch clamp technique (Bkaily 1994, supra; 1996, supra) and intra and extra patch pipette application of the drug.
# In another series of experiments (n=7), using the cell attached patch clamp technique (Bkaily G. 1994, supra; Bkaily G. et al., 1996, supra), the effect of 10^-7M of MV8608 on the R-type Ca^2+ channel in human aortic vascular smooth muscle cell line was tested. […] In a second series of experiments (n=3), the patch pipette solution was free of MV8608 and after recording the single channel activities at different voltages, MV8608 (final concentration of 10^-7M) was applied to the extra-patch pipette solution containing 140mM KCI (where the rest of the cell is bathing). This experiment was designed to verify whether MV8608 crossed the cell membrane and if so, whether its effect from the internal side of the channel under the patch is the same as that when applied at the outer side thereof. […] Such a pattern of increase of probability of opening and the open duration accompanied with the sporadic decrease of the single channel current amplitude has never been observed when MV8608 was applied at the outer side of the single channel under the patch pipette.
# In another series of experiments (n=7), the effect of 10^-7M of MV8612 was tested on the R-type Ca^2+ in human aortic VSM cells, using the single channel cell attached recording technique and intra and extra patch pipette application of drugs.
# In one series of experiments (n=3), MV8612 (total concentration, 10^-7M) was only applied to the patch pipette. […] As for MV8608, in one series of experiments (n=4), MV8612 (10^-7M) was only applied to the extra-patch pipette, in order to verify if the compound penetrates into the cytosol and if so, how it affects the R-type Ca^2+ channel activity.
# [4] = 100 nmol/paw, rats treated 30 days prior (text LPS, Figure 37 BCG)
# [5] = 10 and 100 nmol/paw co-injected
# [6] = 10 and 100 nmol/paw, dose-dependant
substance,measurement,setting,value
"(15R, 16R, 20S)-14, 16:15,20:16,21-triepoxi-15,16-seco 14β, 17α-pregn-5-ene-3β, 15-diol [MV8608]",oedema induced by prostaglandin E2 (PGE2),rat paw oedema; 100 nmol/paw,partially inhibited
same,oedema induced by substance P,rat paw oedema; 100 nmol/paw,unaffected
same,paw oedema induced by PAF,rat paw oedema; 100 nmol/paw,consistently inhibited
same,bradykinin-induced rat paw oedema,rat paw oedema; [4],significantly inhibited
same,des-Arg^9-BK-induced rat paw oedema,rat paw oedema; [4],significantly inhibited
same,carrageenan-induced paw oedema,rat paw oedema; 10 and 100 nmol/paw,significantly prevented
same,dextran-induced paw oedema,rat paw oedema; [5],significantly prevented
same,histamine-induced paw oedema,rat paw oedema; [5],significantly prevented
same,serotonin-induced paw oedema,rat paw oedema; [5],significantly prevented
same,paw oedema induced by des-Arg^9-bradykinin,"rat paw oedema; 10 and 100 nmol/paw co-injected, animals treated with LPS",dose-related inhibition
same,oedema formation induced by subplantar injection of ovalbumin,"rat paw oedema; 10 and 100 nmol/paw, animals actively sensitised",inhibited significantly
same,bradykinin-induced hindpaw oedema,"rat paw oedema; 10 and 100 nmol/paw, animals treated with LPS",no significant effect
same,potentiation of paw oedema by low dose of des-Arg^9-BK plus PAF,rat paw oedema; [6],prevented the potentiation
same,potentiation of paw oedema by low dose of des-Arg^9-BK with PGE2,rat paw oedema; [6],prevented the potentiation
same,sustained increase of [Ca]i induced by 10^-7M PAF,"R-type Ca^2+ channel [1]; 10^-6M of compound, human aortic VSM cell line (Figure 23)",able to block
same,sustained increase of [Ca]i induced by 10^-7M PAF,R-type Ca^2+ channel [1]; 10^-9M of compound,failed to significantly decrease
same,"sustained increase of [Ca]i induced by sustained depolarization, ET-1 (10^-9M), PAF (10^-9M) or BK (10^-6M)",R-type Ca^2+ channel [1]; 10^-9M of compound,completely blocked
same,time within which the block occurred,R-type Ca^2+ channel [1]; 10^-9M of compound,4 to 5 min
same,basal sustained increase of [Ca]i,"R-type Ca^2+ channel [1]; 10^-9M, freshly isolated human aortic endothelial cells, Figure 22",decrease
same,blockade of the R-type Ca^2+ channel across cell types,"R-type Ca^2+ channel [1]; incl. MG63, FAOS-2, atherosclerotic human VSM cells, endothelial cells, T-lymphocytes, platelets (not shown), AOSMC-9",blocked the R-type Ca^2+ channel in all cell types used
same,antinociceptive action in the same model of pain (writhing),[2],only partial or even no antinociceptive action
same,single channel conductance of R-type Ca^2+ channel,R-type Ca^2+ channel [3]; 10^-7M applied in the patch pipette,without affecting
same,single channel amplitude and probability of opening of the single R-type Ca^2+ channel,"R-type Ca^2+ channel [3]; 10^-7M applied in the patch pipette, 10^-6M nifedipine present",decreased the single channel amplitude and probability of opening
same,single channel current amplitude,R-type Ca^2+ channel [3]; 10^-7M applied to the extra-patch pipette solution,spontaneous decrease and release of the blockade
same,"opening of the R-type channel (probability, duration, frequency)",R-type Ca^2+ channel [3]; 10^-7M applied to the extra-patch pipette solution (140mM KCl),increased the probability and duration of opening
